Experiment [1] has as its target recombinant mTOR (FLAG-tagged, amino acid residues 1362 to 2549) (Homo sapiens, UniProt P42345). Briefly: Alternative Enzyme Assay: AlphaScreen, inhibition of phosphorylation by recombinant mTOR. The class given is biochemical.
Experiment [2] relates to phosphorylation of Serine 473 in Akt in MDA-MB-468 cells. Briefly: In Vitro phospho-Ser473 Akt Assay (Acumen Explorer). It counts as cell-based. To be noted: Homo sapiens, MDA-MB-468 cells.
Experiment [3] has as its target T1, mTOR (Homo sapiens, UniProt P42345).
T1 construct: mTOR protein was isolated from HeLa cell cytoplasmic extract by immunoprecipitation; endogenous in cells; host or cells: HeLa cell cytoplasmic extract (immunoprecipitate)
Description: Biological Assay: mTOR enzyme activity, mTOR immunoprecipitated from HeLa cell cytoplasmic extract, recombinant PHAS-1 as substrate. It counts as biochemical. To be noted: Biological Assay, upper bounds; read-out: IC50 values against mTOR.
Description: For mTOR enzyme activity assays, mTOR protein was isolated from HeLa cell cytoplasmic extract by immunoprecipitation, and activity determined essentially as described previously using recombinant PHAS-1 as a substrate (ref. 21).

Setting [4] is: Alternative Enzyme Assay, upper bounds, read-out: IC50 values against mTOR.
The mark [5] stands for this setting: 2 hours, read-out: IC50, phospho-Ser473 Akt assay (cellular IC50, measured by pAkt).
The mark [6] stands for this setting: Alternative Enzyme Assay, read-out: IC50 values against mTOR.
[7] abbreviates: AlphaScreen, ATP 20 μM, read-out: IC50, tested in Alternative Enzyme Assay.
Where [8] appears, read: compounds of Formula I(B), read-out: IC50 values against mTOR (phospho-Ser473 Akt assay).

Read-outs that look alike come from different tables or passages of the source.

A word on the IC50: it is the concentration at which inhibition is half-maximal.

Turning to `OCc1cccc(-c2nc(N3CCOCC3)c3ccc(-c4ccc(Cl)cc4)nc3n2)c1` [Example 9m], the concentration for half-maximal inhibition (IC50) in experiment [1] (setting [4]) is < 1000 nM; in experiment [2] (setting [5]) it was < 2500 nM. For the compound `COc1cccc(-c2nc(N3CCOCC3)c3ccc(-c4ccc(OC)c(CO)c4)nc3n2)c1` [Example 9e], the concentration for half-maximal inhibition (IC50) in experiment [1] (setting [4]) is < 10000 nM; in experiment [1] (setting [6]), < 300 nM; in experiment [2] (setting [5]), < 25000 nM.

As for `C[C@@H]1CN(c2nc(N3CCOCC3)c3ccc(-c4ccoc4CO)nc3n2)C[C@H](C)O1` [Example 1bi], the IC50 in experiment [1] (setting [6]) is < 300 nM; in experiment [2] (setting [5]), < 25000 nM. Regarding `COc1ccc(-c2ccc3c(N4CCOCC4)nc(-c4ccco4)nc3n2)cc1CO` [Example 9f], the IC50 in experiment [1] (setting [4]) was < 10000 nM; in experiment [1] (setting [6]), < 300 nM; in experiment [2] (setting [5]), < 25000 nM. Consider `C/C=C/COc1ccc(-c2ccc3c(N4CCOCC4)nc(N4C[C@@H](C)O[C@@H](C)C4)nc3n2)cc1` [Example 1bq], for which the IC50 in experiment [1] (setting [4]) is < 1000 nM. In the case of `COc1ccc(-c2ccc3c(N4CCOCC4)nc(-c4cccc(N)c4)nc3n2)cc1CO` [Example 9l], the values for the IC50 in experiment [1] (setting [6]) and in experiment [2] (setting [5]) were < 300 nM and < 2500 nM, respectively.

`COc1ccc(-c2ccc3c(N4CCOCC4)nc(-c4cccc(CN)c4)nc3n2)cc1CO` [Example 9n]: the IC50 in experiment [1] (setting [4]) is < 1000 nM; in experiment [2] (setting [5]), < 2500 nM.

Turning to `NC(=O)c1cccc(-c2nc(N3CCOCC3)c3ccc(-c4ccc(Cl)cc4)nc3n2)c1` [Example 9ac], the IC50 in experiment [1] (setting [4]) is < 10000 nM. Take `C[C@@H]1CN(c2nc(N3CCOCC3)c3ccc(-c4ccc(Cl)cc4)nc3n2)C[C@H](C)O1` [Example 1b]: the IC50 was < 100 nM in experiment [3] and 57 nM in experiment [1] (setting [7]).

`N#Cc1cccc(-c2nc(N3CCOCC3)c3ccc(-c4ccc(Cl)cc4)nc3n2)c1` [Example 9ab]: the IC50 in experiment [1] (setting [4]) was < 10000 nM. For the compound `Clc1ccc(-c2ccc3c(N4CCOCC4)nc(-c4cccc(-c5ccccc5)c4)nc3n2)cc1` [Example 9aa], the IC50 in experiment [1] (setting [4]) was < 1000 nM; in experiment [2] (setting [5]) it was < 25000 nM. As to `C[C@@H]1CN(c2nc(N3CCOCC3)c3ccc(-c4ccc(OCCCO)cc4)nc3n2)C[C@H](C)O1` [Example 1bm], in experiment [1] (setting [4]), the half-inhibitory concentration (IC50) was < 1000 nM. Regarding `COc1ccc(-c2ccc3c(N4CCOCC4)nc(-c4cccc(C(N)=O)c4)nc3n2)cc1CO` [Example 9k], the IC50 in experiment [1] (setting [6]) was < 300 nM; in experiment [2] (setting [5]) it was < 2500 nM.

In the case of `COc1ccc(-c2ccc3c(N4CCOCC4)nc(-c4ccc(OC)c(CO)c4)nc3n2)cc1CO` [Example 9q], the IC50 in experiment [1] (setting [4]) is < 10000 nM. Take `C[C@H]1COCCN1c1nc(N2CCOC[C@@H]2C)c2ccc(-c3ccc(F)c(C#N)c3)nc2n1` [Example 11av, 5-[2,4-bis-((S)-3-methyl-morpholin-4-yl)-pyrido[2,3-d]pyrimidin-7-yl]-2-fluoro-benzonitrile]: the half-maximal inhibitory concentration (IC50) in experiment [1] (setting [6]) and in experiment [2] (setting [8]) was < 300 nM in each case. On to `C[C@@H]1CN(c2nc(N3CCOCC3)c3ccc(-c4ccc(OCC5CCCCC5)cc4)nc3n2)C[C@H](C)O1` [Example 1bk], for which the IC50 in experiment [1] (setting [4]) is < 1000 nM.

As for `COc1ccc(-c2ccc3c(N4CCOCC4)nc(-c4cccc(C(F)(F)F)c4)nc3n2)cc1CO` [Example 9r], the results for the IC50 in experiment [1] (setting [4]) and in experiment [2] (setting [5]) were < 1000 nM and < 25000 nM, respectively.

Consider `C[C@@H]1CN(c2ccc3c(N4CCOCC4)nc(-c4ccc(Cl)cc4)nc3n2)C[C@H](C)O1` [Example 9s], for which the IC50 in experiment [1] (setting [4]) is < 10000 nM. As to `COc1ccc(-c2ccc3c(N4CCOCC4)nc(-c4cccc(-c5ccccc5)c4)nc3n2)cc1CO` [Example 9o], the concentration for half-maximal inhibition (IC50) in experiment [1] (setting [4]) is < 10000 nM. Regarding `COc1ccc(-c2ccc3c(N4CCOCC4)nc(-c4cccc(O)c4)nc3n2)cc1CO` [Example 9i], the IC50 in experiment [1] (setting [4]) is < 10000 nM; in experiment [1] (setting [6]), < 300 nM; in experiment [2] (setting [5]) it was < 2500 nM. `COc1ccc(-c2ccc3c(N4CCOCC4)nc(-c4cccc(C)c4)nc3n2)cc1CO` [Example 9d]: the results for the IC50 in experiment [1] (setting [4]), in experiment [1] (setting [6]) and in experiment [2] (setting [5]) were < 10000 nM, < 300 nM and < 25000 nM, respectively. For the compound `CC(Oc1ccc(-c2ccc3c(N4CCOCC4)nc(N4C[C@@H](C)O[C@@H](C)C4)nc3n2)cc1)c1ccccc1` (some centres unmarked) [Example 1bv], the IC50 in experiment [1] (setting [4]) is < 10000 nM. As for `COc1ccc(-c2ccc3c(N4CCOC[C@@H]4C)nc(-c4cccc(N)c4)nc3n2)cc1CO` [Example 29f], the IC50 is 96 nM in experiment [1] (setting [7]), < 100 nM in experiment [1] (setting [6]) and < 300 nM in experiment [2] (setting [8]). As for `Clc1ccc(-c2ccc3c(N4CCOCC4)nc(-c4ccco4)nc3n2)cc1` [Example 9x], the IC50 in experiment [1] (setting [4]) was < 10000 nM. On the same count and under the same terms, to `CC(C)CCCOc1ccc(-c2ccc3c(N4CCOCC4)nc(N4C[C@@H](C)O[C@@H](C)C4)nc3n2)cc1` [Example 1bx] belongs < 10000 nM; to `C[C@@H]1CN(c2nc(N3CCOCC3)c3ccc(-c4ccc(OCC(C)(C)CO)cc4)nc3n2)C[C@H](C)O1` [Example 1bp], < 1000 nM; to `COc1cccc(-c2nc(N3CCOCC3)c3ccc(-c4ccc(Cl)cc4)nc3n2)c1` [Example 9u], < 10000 nM. In the case of `C[C@H]1COCCN1c1nc(N2CCOCC2)c2ccc(-c3ccc(Cl)cc3)nc2n1` [Example 1be], the IC50 in experiment [1] (setting [4]) was < 10000 nM; in experiment [1] (setting [6]) it was < 300 nM; in experiment [2] (setting [5]) it was < 2500 nM. As for `COCc1cccc(-c2nc(N3CCOCC3)c3ccc(-c4ccc(Cl)cc4)nc3n2)c1` [Example 9z], in experiment [1] (setting [4]), the concentration for half-maximal inhibition (IC50) is < 10000 nM. On the same count and under the same terms, the same measure for `Cc1cccc(-c2nc(N3CCOCC3)c3ccc(-c4ccc(Cl)cc4)nc3n2)c1` [Example 9y]: < 10000 nM. For `COc1ccc(-c2ccc3c(N4CCOCC4)nc(-c4cccc(CO)c4)nc3n2)cc1CO` [Example 9ae], the IC50 in experiment [1] (setting [4]) is < 10000 nM; in experiment [1] (setting [6]) it was < 300 nM.

As for `C[C@@H]1CN(c2nc(N3CCOCC3)c3ccc(-c4ccc(OCC5CCCO5)cc4)nc3n2)C[C@H](C)O1` (some centres unmarked) [Example 1bt], the half-maximal inhibitory concentration (IC50) in experiment [1] (setting [4]) was < 1000 nM.

With `CCCOc1ccc(-c2ccc3c(N4CCOCC4)nc(N4C[C@@H](C)O[C@@H](C)C4)nc3n2)cc1` [Example 1bn], the IC50 in experiment [1] (setting [4]) is < 1000 nM. In the case of `COc1ccc(-c2ccc3c(N4CCOCC4)nc(-c4cc(C(=O)O)cc([N+](=O)[O-])c4)nc3n2)cc1CO` [Example 9b], the IC50 in experiment [1] (setting [4]) was < 10000 nM; in experiment [1] (setting [6]), < 300 nM.

As to `C[C@@H]1CN(c2nc(N3CCOCC3)c3ccc(-c4ccc(OCc5ccc(F)c(F)c5)cc4)nc3n2)C[C@H](C)O1` [Example 1bw], the IC50 in experiment [1] (setting [4]) is < 10000 nM. Regarding `COc1ccc(-c2ccc3c(N4CCOCC4)nc(-c4cccc([N+](=O)[O-])c4)nc3n2)cc1CO` [Example 9c], the IC50 is < 10000 nM in experiment [1] (setting [4]) and < 300 nM in experiment [1] (setting [6]). In the case of `FC(F)(F)c1cccc(-c2nc(N3CCOCC3)c3ccc(-c4ccc(Cl)cc4)nc3n2)c1` [Example 9p], the IC50 in experiment [1] (setting [4]) was < 1000 nM.

As for `O=[N+]([O-])c1cccc(-c2nc(N3CCOCC3)c3ccc(-c4ccc(Cl)cc4)nc3n2)c1` [Example 9v], the IC50 in experiment [1] (setting [4]) was < 10000 nM. The same measure, in the same setting: to `Clc1ccc(-c2ccc3c(N4CCOCC4)nc(-c4cccnc4)nc3n2)cc1` [Example 9t] belongs < 10000 nM; to `COC(=O)c1cccc(-c2nc(N3CCOCC3)c3ccc(-c4ccc(Cl)cc4)nc3n2)c1` [Example 9ad], < 1000 nM. Regarding `C[C@@H]1CN(c2nc(N3CCOCC3)c3ccc(-c4ccc(OC5C=CCCC5)cc4)nc3n2)C[C@H](C)O1` (some centres unmarked) [Example 1bl], in experiment [1] (setting [4]), the IC50 is < 10000 nM.
